According to patent US9063122B2, “Biomodulators for treatment or prevention of disease” (priority 2008, dated 2015):

Assays:
[1] = system: C33A cervical carcinoma cells; assay: Cellular ATP level (ViaLight) cell viability assay; type: cell-based; conditions: 0.5 μM, 72 hours after treatment
Description: (§1) Selected cell lines include C33A cervical carcinoma cells, Mrc-5 normal lung fibroblasts, PC-3 human prostatic carcinoma cell line, OVCAR-3 human ovarian carcinoma cell line, H460 non-small cell lung cancer cell line, A549 human lung carcinoma cell line, H1299 human non-small cell lung cancer cells, MCF-7 human breast cancer cell line, SW-480 human adenocarcinoma cell line, B16-F1 mouse melanoma cell line (American Type Culture Collection, Manassas, Va., USA), HMEC normal mammary epithelial cells (Clonetics San Diego, Calif., USA) and ADR-RES human breast cancer cell line (NCI, MD, USA), which are cultured in the media recommended by the American Type Culture Collection. The cell lines are plated in 96-well microliter plates (PerkinElmer Life Sciences Inc., Boston, Mass., USA) at a confluency that allows them to reach confluence after 4 days of growth. One day after plating, the cells are treated with various concentrations of biomodulator. Stock solutions of the biomodulator are prepared in dimethyl sulfoxide (Sigma-Aldrich Inc., St. Louis, Mo., USA), diluted in the recommended media and then added to the cells. The total dimethyl sulfoxide on the cells is 1%. After 3 days of incubation the ATP levels in the cells are quantified using a luminescent ViaLight detection system (Bio-Whittaker, MD, USA). […]

[2] = system: H1299 human non-small cell lung cancer cells; assay: Cellular ATP level (ViaLight) cell viability assay; type: cell-based; conditions: 0.5 μM, 72 hours after treatment
Description: as §1

[3] = system: ten different cancer cell lines; assay: Cellular ATP level (ViaLight) assay, panel of cancer cell lines; type: cell-based; conditions: various concentrations
Description: as §1

[4] = system: murine colonic tumor, colon 26; assay: Treatment of colon 26 tumors in mice; type: in vivo, CDF1 mice; conditions: 1 mg in 1 ml on days 7, 11 and 15, under the skin of the back and into tail vein; palpation
Description: Treatment of tumors in mice. A pharmaceutical composition of biomodulator 3-indolyl-acetic acid, or 6-furfurylaminopurine are prepared at 10 mg in 10 ml of physiological saline. 10 mg of a murine colonic tumor, colon 26, is inoculated under the skin of the back of CDF1 mice (day 0). After one week, the tumor is measured to calculate the volume of the tumor and the mice are classified into several groups (each group: n=5). On days 7, 11 and 15, the tumor-inoculated mice are bolusly injected under the skin of their backs and into their tail veins with 1 mg of the biomodulator in a volume of 1 ml. Control and comparative groups of mice are similarly injected with saline. Complete regression of the colonic tumor is determined by palpation. Subjects in which the tumor […] by palpation on the 60th day are deemed to have their tumors cured completely.

white cells = conditions: in vitro; cited from earlier work
[5] = system: fibroblasts in human skin; conditions: cited from earlier work
[6] = system: human myeloid leukaemia cells; conditions: cited from earlier work
C2C12 muscle stem cells [7] = assay: C2C12 muscle stem cell culture with immunocytochemistry (Pax7, MyoD, Ki67, MHC); type: cell-based; conditions: for number of stem cells in culture: FIG. 2, TIBA at low to mid-level concentrations (range tested 0.0001-0.1 μg/ml)
Description: (§2) Reagents: The auxin 2,4-Dichlorophenoxyacetic acid, and auxin antagonist, TIBA (2,3,5-triiodobenzoic acid), are purchased from Sigma-Aldrich (St. Louis, Mo.), After dissolving, these compounds are stored at −20° C. Concentrations used are 0.0001, 0.001, 0.01 and 0.1 μg/ml.
C2C12 muscle stem cells are used. Cells from low-passage frozen stocks are seeded in a 10 cm culture dish. After reaching 60% confluence, cells are passaged into an 8-well chamber slide (BD Biosciences, CA, USA). C2C12 cells are seeded on an 8-well chamber slide (3.5×10^3 cells/well). On day 3 after exposure to biomodulator or control, cells are fixed for immunocytochemistry (ICC) of MyoD and Ki67. For MHC and Pax7 immunostaining, cell culture media is replaced from the growth media (GM) to the differentiation media (DM) to induce terminal differentiation at day 5, and then cells are fixed for ICC of MHC and Pax7 at day 8. Media change and compound administration are performed daily.
For ICC, cells are fixed with 4% paraformaldehyde (PFA)/PBS for 20 min at ambient temperature. After being washed with PBS, cells are soaked in 0.1% Triton-X/PBS for 15 min at RT and blocked with 5% normal goat serum (NGS)/PBS to inhibit non-specific binding of antibodies for 60 min at ambient temperature. Primary antibodies are applied, and cells are incubated overnight at 4° C. The primary antibodies are anti-Pax7 mouse monoclonal (Developmental Studies Hybridoma Bank (DSHB), IA), anti-MyoD mouse monoclonal (DSHB), anti-Myosin Heavy Chain mouse monoclonal (MF20; DSHB) and anti-Ki67 rabbit polyclonal (Thermo Fisher Scientific, CA) antibodies.

C2C12 muscle stem cells [8] = assay: WST-1 cell growth assay; type: cell-based; conditions: day 3; 0.001 μg/ml and 0.0001 μg/ml
Description: as §2
Cell growth parameters are measured by WST assay. Cell proliferation reagent WST-1 is purchased from Roche (NJ). Assays are performed according to the manufacturer's protocol. Cells are seeded on a 96-well cell culture plate (1.5×10^3 cells/well), and absorbance (A450-A690) is measured at day 3.

[9] = system: cardiac cells (myoblasts); conditions: cited from earlier work

For `O=C(O)Cc1c[nH]c2ccccc12` [3-indolyl-acetic acid], the “lowering of ATP levels compared with normal cell lines HMEC and MRC-5” value [1] was “significantly more effective at lowering ATP levels”, the “lowering of ATP levels compared with normal cell lines HMEC and MRC-5” value [2] was “significantly more effective at lowering ATP levels” and the “decrease of cellular ATP levels compared with HMEC normal mammary epithelial cell line” value [3] was “greater efficacy in decreasing cellular ATP levels”. For the same compound, the tumor regression [4] was “produces tumor regression”.

For `CC1=CC(=O)CC(C)(C)[C@@]1(O)/C=C/C(C)=C\C(=O)O` [ABA, Abscisic acid], the “phagocytosis in white cells” value (white cells) is given as “stimulation of phagocytosis”.

For `c1coc(CNc2ncnc3nc[nH]c23)c1` [6-furfurylaminopurine], the tumor regression [4] is given as “produces tumor regression”, the “life span of fibroblasts” value [5] is given as “prolongs the life span of fibroblasts” and the “granulocytic differentiation and apoptosis” value [6] is given as “induction of granulocytic differentiation”.

For `O=C(O)COc1ccc(Cl)cc1Cl` [auxin, 2,4-Dichlorophenoxyacetic acid], the “number of stem cells in culture” value (C2C12 muscle stem cells [7]) was “opposite that of TIBA”, the global cell proliferation (C2C12 muscle stem cells [7]; FIG. 4, high Auxin concentrations) was “reduced” and the myotube formation (C2C12 muscle stem cells [7]; FIG. 5, low auxin concentration) was “increase”. For the same compound, the myotube formation (C2C12 muscle stem cells [7]; FIG. 5, mid to high auxin concentration (0.01 μg/ml)) was “reduced”.

In the case of `O=C(O)c1cc(I)cc(I)c1I` [TIBA, 2,3,5-triiodobenzoic acid], the “number of stem cells in culture” value (C2C12 muscle stem cells [7]) is reported as “reduces the number of stem cells”, the myotube formation (C2C12 muscle stem cells [7]; FIG. 6, increased concentrations of TIBA) is reported as “increased myotube formation” and the “number of MyoD positive myoblasts” value (C2C12 muscle stem cells [7]; day 3) is reported as “dose-dependent decrease”. The “cell number, WST-1 cell growth assay” value (C2C12 muscle stem cells [8]) was “increases cell number”.

In the case of `c1nc2nc(Nc3ccc(N4CCOCC4)cc3)nc(NC3CCCCC3)c2[nH]1` [reversine], the de-differentiation of cells [9] is listed as “de-differentiate into osteoblasts and adipocytes”.
